For assay [1], the system named is mouse embryo fibroblasts (NIH/3T3). Put plainly: MTT assay for cell viability, NIH/3T3. It counts as cell-based. To be noted: NIH3T3, 48 h. As for the experimental part: (§1) The human cancer cell lines e.g. HepG2 (hepatocellular carcinoma, ATCC® HB-8065™), PC-3 (human prostate cancer cells, ATCC® CRL-1435™), MCF-7 (breast adenocarcinoma, ATCC® […]), and mouse embryo fibroblasts (NIH/3T3, ATCC® CRL-1658™), used in the present study were obtained from the ATCC (American Type Culture Collection, USA and maintained in RPMI 1640 (Roswell Park Memorial Institute, Merck) with 10% FBS (Merck), supplemented with 1% antibiotic and antimycotic solution (Gibco, USA) at 37° C. in a humidified incubator with 5% CO2. All stock solutions of the compounds were prepared in cell culture grade DMSO (dimethyl sulfoxide) and stored at −20° C. Compounds were diluted in culture media prior to use in experiments. Annexin V-FITC apoptosis detection kits were purchased from Calbiochem. MTT dye was procured from Sigma-Aldrich. All the flow cytometry experiments were performed using a FACScan (Becton Dickinson, Mountain View, Calif.) flow cytometer, equipped with a single 488 nm argon laser.
(§2) Cell viability was assessed by MTT assay, which is based on the reduction of MTT by mitochondrial dehydrogenases of viable cells to form a purple formazan product. Briefly, cells (5-6×10^3/well) were plated in 96 well plates. After incubating overnight, the cells were treated with […] different concentrations (100, 50, 20, 10, 5, 2.5, 1.25 μM) in triplicates with the cationic lipidated cordiarimide and intermediates for 48 h. Subsequently, 10 μL of MTT (10 mg/mL) was added to each well and incubated for 3 h. The MTT formazan formed by viable cells was dissolved in 100 μL of DMSO and shaken for 10 min. The absorbance was measured on an ELISA reader. Each test was repeated at least three times. The concentration of the compound which gives the 50% growth inhibition value corresponding to IC50, was calculated using GraphPad prism 5 software. In the present invention we have screened 26 lipidated cordiarimides and the results are described in table 1.

Assay [2] has as its system MCF-7 (breast adenocarcinoma). Put plainly: MTT assay for cell viability, MCF-7. It is filed as cell-based, human. Conditions: Homo sapiens, MCF7, 48 h. As for the experimental part: as §1, §2
For assay [3], the system named is PC-3 (human prostate cancer cells). The assay is described as follows: MTT assay for cell viability, PC-3. It counts as cell-based. To be noted: Homo sapiens, 48 h. As for the experimental part: as §1, §2
Assay [4] has as its system HepG2 (hepatocellular carcinoma). The assay is described as follows: MTT assay for cell viability, HepG2. It counts as cell-based, human. Conditions: Homo sapiens, HepG2, 48 h. As for the experimental part: as §1, §2
On the technique in general: Tetrazolium dyes change colour on reduction, which living cells bring about.

The values below come from patent US10266564B2, “Cationic lipid cordiarimide hybrid compounds and a process for preparation thereof” (COUNCIL OF SCIENTIFIC & INDUSTRIAL RESEARCH, priority 2014, dated 2019).

Molecules are shown by their SMILES. pIC50: −log10 of the molar value.

By pIC50 is commonly meant the negative decadic logarithm of the IC50, by convention in mol/L.

Turning to `CCCCCCCCCN(CCCCCCCCC)CC(=O)NC1CCC(=O)N(CC(=O)c2ccccc2)C1=O` (centres unmarked) [Compound 7h, 2Dinonylamino-N-[2,6-dioxo-1-(2-oxo-2-phenyl-ethyl)-piperidin-3-yl]-acetamide], the pIC50 in assay [1] is 4.97; in assay [2], 4.70; in assay [3], less than 4.70; in assay [4] it was less than 4.70.

For `CCCN(CCC)CC(=O)NC1CCC(=O)N(CC(=O)c2ccccc2)C1=O` (centres unmarked) [Compound 7b, 2-Dipropylamino-N-[2,6-dioxo-1-(2-oxo-2-phenyl-ethyl)-piperidin-3-yl]acetamide], the negative-log IC50 (pIC50) in assay [1], in assay [2], in assay [3] and in assay [4] was less than 4.70 throughout.

In the case of `CCCCCCCCCCCN(CCCCCCCCCCC)CC(=O)NC1CCC(=O)N(CC(=O)c2ccccc2)C1=O` (centres unmarked) [Compound 7j, N-[2,6-Dioxo-1-(oxo-2-phenyl-ethyl)-piperidine-3-yl]-2-diundecylamino-acetamide], the negative-log IC50 (pIC50) in assay [1] is less than 4.70; in assay [2], less than 4.70; in assay [3] it was 4.76; in assay [4], less than 4.70.

Turning to `CCCCN(CCCC)CC(=O)NC1CCC(=O)N(CC(=O)c2ccccc2)C1=O` (centres unmarked) [Compound 7c, 2-Dibutylamino-N-[2,6-dioxo-1-(2-oxo-2-phenyl-ethyl)-piperidin-3-yl]-acetamide], the pIC50 in assay [1], in assay [2], in assay [3] and in assay [4] was less than 4.70 each time.

Regarding `CCCCCC[N+](C)(CCCCCC)CC(=O)NC1CCC(=O)N(CC(=O)c2ccccc2)C1=O` (centres unmarked) [Compound 8e, {[2,6-Dioxo-1-(2-oxo-2-phenyl-ethyl)-piperidin-3-ylcarbamoyl]-methyl}-Dihexyl-methyl-ammonium iodide], the pIC50 in assay [1], in assay [2], in assay [3] and in assay [4] was less than 4.70 throughout.

Regarding `CCCCCCCCC[N+](C)(CCCCCCCCC)CC(=O)NC1CCC(=O)N(CC(=O)c2ccccc2)C1=O` (centres unmarked) [Compound 8h, {[2,6-Dioxo-1-(2-oxo-2-phenyl-ethyl)-piperidin-3-ylcarbamoyl]-methyl}-Methyl-dinonyl-ammonium iodide], the negative-log IC50 (pIC50) in assay [1] is 5.56; in assay [2], 5.19; in assay [3] it was 5.06; in assay [4] it was 5.49.

Take `CCCCCCCCN(CCCCCCCC)CC(=O)NC1CCC(=O)N(CC(=O)c2ccccc2)C1=O` (centres unmarked) [Compound 7g, 2-Dioctylamino-N-[2,6-dioxo-1-(2-oxo-2-phenyl-ethyl)-piperidin-3-yl]-acetamide]: the pIC50 in assay [1] was 5.14; in assay [2], 4.99; in assay [3], less than 4.70; in assay [4] it was 4.94.

For `CCCCCCCCCCCCCN(CCCCCCCCCCCCC)CC(=O)NC1CCC(=O)N(CC(=O)c2ccccc2)C1=O` (centres unmarked) [Compound 7l, N-[2,6-Dioxo-1-(oxo-2-phenyl-ethyl)-piperidine-3-yl]-2-ditridecylamino-acetamide], the pIC50 in assay [1], in assay [2], in assay [3] and in assay [4] was less than 4.70 in each case.

On to `CCCCCCN(CCCCCC)CC(=O)NC1CCC(=O)N(CC(=O)c2ccccc2)C1=O` (centres unmarked) [Compound 7e, 2-Dihexylamino-N-[2,6-dioxo-1-(2-oxo-2-phenyl-ethyl)-piperidin-3-yl]-acetamide], for which the negative logarithm of the IC50 (pIC50) in assay [1] is 5.43; in assay [2] it was 5.41; in assay [3], less than 4.70; in assay [4], 5.24.

For the compound `CCN(CC)CC(=O)NC1CCC(=O)N(CC(=O)c2ccccc2)C1=O` (centres unmarked) [Compound 7a, 2-Diethylamino-N-[2,6-dioxo-1-(2-oxo-2-phenyl-ethyl)-piperidin-3-yl]-acetamide], the pIC50 in assay [1], in assay [2], in assay [3] and in assay [4] was less than 4.70 in each case.

For the compound `CCCCCCCN(CCCCCCC)CC(=O)NC1CCC(=O)N(CC(=O)c2ccccc2)C1=O` (centres unmarked) [Compound 7f, 2-Diheptylamino-N-[2,6-dioxo-1-(2-oxo-2-phenyl-ethyl)-piperidin-3-yl]-acetamide], the pIC50 in assay [1] is 5.06; in assay [2] it was 5.03; in assay [3], less than 4.70; in assay [4] it was 5.11.

As to `CCC[N+](C)(CCC)CC(=O)NC1CCC(=O)N(CC(=O)c2ccccc2)C1=O` (centres unmarked) [Compound 8b, Dipropylamm{[2,6-Dioxo-1-(2-oxo-2-phenyl-ethyl)-piperidin-3-ylcarbamoyl]-methyl}-methyl-ammonium iodide], the pIC50 in assay [1], in assay [2], in assay [3] and in assay [4] was less than 4.70 throughout.

For the compound `CCCCCCCCCCCCCCN(CCCCCCCCCCCCCC)CC(=O)NC1CCC(=O)N(CC(=O)c2ccccc2)C1=O` (centres unmarked) [Compound 7m, N-[2,6-Dioxo-1-(oxo-2-phenyl-ethyl)-piperidine-3-yl]-2-ditetradecylamino-acetamide], the pIC50 in assay [1], in assay [2], in assay [3] and in assay [4] was less than 4.70 in each case.

Regarding `CC[N+](C)(CC)CC(=O)NC1CCC(=O)N(CC(=O)c2ccccc2)C1=O` (centres unmarked) [Compound 8a, {[2,6-Dioxo-1-(2-oxo-2-phenyl-ethyl)-piperidin-3-ylcarbamoyl]-methyl}-Diethyl-methyl-ammonium iodide], the negative-log IC50 (pIC50) in assay [1], in assay [2], in assay [3] and in assay [4] was less than 4.70 throughout.

Regarding `CCCCCN(CCCCC)CC(=O)NC1CCC(=O)N(CC(=O)c2ccccc2)C1=O` (centres unmarked) [Compound 7d, 2-Dipentylamino-N-[2,6-dioxo-1-(2-oxo-2-phenyl-ethyl)-piperidin-3-yl]-acetamide], the pIC50 in assay [1] was less than 4.70; in assay [2], less than 4.70; in assay [3], less than 4.70; in assay [4], 4.90.

Turning to `CCCCCCCCCCCCN(CCCCCCCCCCCC)CC(=O)NC1CCC(=O)N(CC(=O)c2ccccc2)C1=O` (centres unmarked) [Compound 7k, N-[2,6-Dioxo-1-(oxo-2-phenyl-ethyl)-piperidine-3-yl]-2-didodecylamino-acetamide], the negative-log IC50 (pIC50) in assay [1], in assay [2], in assay [3] and in assay [4] was less than 4.70 throughout.

For the compound `CCCCC[N+](C)(CCCCC)CC(=O)NC1CCC(=O)N(CC(=O)c2ccccc2)C1=O` (centres unmarked) [Compound 8d, {[2,6-Dioxo-1-(2-oxo-2-phenyl-ethyl)-piperidin-3-ylcarbamoyl]-methyl}-Methyl-dipentyl-ammonium iodide], the pIC50 in assay [1], in assay [2], in assay [3] and in assay [4] was less than 4.70 throughout.

Regarding `CCCCCCCCCCN(CCCCCCCCCC)CC(=O)NC1CCC(=O)N(CC(=O)c2ccccc2)C1=O` (centres unmarked) [Compound 7i, 2-(Bis-decyl-amino)-N-[2,6-dioxo-1-(2-oxo-2-phenyl-ethyl)-piperidin-3-yl]acetamide], the negative-log IC50 (pIC50) in assay [1] was less than 4.70; in assay [2] it was 4.85; in assay [3] it was less than 4.70; in assay [4], less than 4.70.

With `CCCCCCC[N+](C)(CCCCCCC)CC(=O)NC1CCC(=O)N(CC(=O)c2ccccc2)C1=O` (centres unmarked) [Compound 8f, {[2,6-Dioxo-1-(2-oxo-2-phenyl-ethyl)-piperidin-3-ylcarbamoyl]-methyl}-Diheptyl-methyl-ammonium iodide], the pIC50 in assay [1] was less than 4.70; in assay [2] it was less than 4.70; in assay [3] it was less than 4.70; in assay [4], 5.48.

As for `CCCC[N+](C)(CCCC)CC(=O)NC1CCC(=O)N(CC(=O)c2ccccc2)C1=O` (centres unmarked) [Compound 8c, Dibutyl-{[2,6-dioxo-1-(2-oxo-2-phenyl-ethyl)-piperidin-3-ylcarbamoyl]-methyl}-methyl-ammonium iodide], the pIC50 in assay [1], in assay [2], in assay [3] and in assay [4] was less than 4.70 each time.
